In US20040077709A1, “Neuronal death inhibitors” (DAIICHI PHARMACEUTICAL CO., LTD., priority 1999, published 2004):

Legend:
EL mice (EL[s]) = test: DNA fragmentation (TdT labeling) in brain sections of EL mice after oral nefiracetam; assay type: in vivo; details: EL[s] mice aged 30 weeks, 10 mg/kg oral once a day
Text: Employed were three groups each constituting 6 mice aged 30 weeks, that is, EL mice (EL[s]) given an epileptogenic stimulus once a week and thus having a low threshold, EL mice (EL[ns]) not given an epileptogenic stimulus and free from epileptic seizure at least during observation and DDY mice as a control. Each group was compared with that consisting of 40 to 50 week old mice in order to omit the influence of aging. A section of 10 μm was fixed to a gelatin-coated sliding glass in a cryostat, followed by permeabilization with 0.1% sodium citrate and 0.1% Triton X-100 at 4° C. for 5 minutes. DNA fragmentation was detected by polymerizing a fluorescein-labeled nucleotide with the 3′-OH ends of the cleaved DNA by using terminal transferase (TdT). Reaction with an anti-fluorescein antibody conjugated with peroxidase (PD) or alkali phosphatase (AP) developed color, thereby enabling detection by an optical microscope. As a negative control, TdT(−) and as a positive control, a sample treated with DNAaseI were employed. Nefiracetam was orally administered to the test group (aged 30 weeks, EL[s]) once (10 mg/kg) a day. While thus controlling the occurrence of epileptic seizure, a relationship between the nefiracetam administration terms (1, 3, 5 and 7 days) and appearing frequency of DNA fragmentation was observed.
As a result, DNA fragmentation was detected from neither DDY mice aged 30 weeks (adult) nor those aged 40 weeks (having an influence of aging) which served as a negative control. In the EL mice (EL[s]) having epileptic seizure, whether they were aged 30 weeks or 40 weeks, DNA fragmentation was recognized from their hippocampus and parietal cortex. In the EL mice (El[ns]) free from epileptic seizure, whether they were aged 30 weeks or 40 weeks, DNA fragmentation was recognized in only a narrower region at a lower frequency than the EL[s]. In their hippocampus, no DNA fragmentation was recognized.
EL mice serve as a model of the region-specific secondary generalized epilepsy. Although having no severe tissue injury, they are known for accelerated production of free radicals in the hippocampus and parietal cortex constituting a partial complex seizure, a rise in NO and site-specific expression of the immediately early genes (c-fos, zif) during an epileptogenicity acquiring procedure.

male mice = details: oral; cited from earlier work
[1] = five days after the administration, FIG. 2
[2] = single administration (one day), FIG. 1

Question: What does the source list for `Cc1cccc(C)c1NC(=O)CN1CCCC1=O` [nefiracetam, 2-oxo-1-pyrrolidinylacetic acid 2,6-dimethylanilide]?
Answer: DNA fragmentation in the hippocampus (EL mice (EL[s]); [1]): disappeared; DNA fragmentation in the parietal cortex (EL mice (EL[s]); [1]): no change; DNA fragmentation in the hippocampus (EL mice (EL[s]); [2]): recognized; DNA fragmentation in the parietal cortex (EL mice (EL[s]); [2]): recognized; acute toxicity (male mice): 2,005 mg/kg
